Experimental findings from patent publication US5869514A, “Terpenoidic derivatives useful as antitumor agents” (Pharmacia & Upjohn S.p.A., priority 1995, dated 1999) are described below.

The subject of one experiment is Calf brain tubulin. In words: Tubulin assembly test (repolymerization in presence of CaCl2, turbidity at 340 nm). As to conditions: tubulin 1 mg/ml, 1 mM GTP, after 4 mM CaCl2. Format: biochemical. As for the experimental part:
(a) Tubulin Assembly Test
Calf brain tubulin was prepared by two cycles of assembly-disassembly (Shelanski M. L., Gaskin F. and Cantor C. R., Proc. Natl.Acad.Sci. U.S.A. 70, 765-768, 1973; and stored in liquid nitrogen in MAB (0.1M MES, 2.5 mM EGTA, 0.5 mM MgSO4, 0.1 mM EDTA, 0.1 mM DTT, pH 6.4).
All the experiments were carried out on protein stored for less than 4 weeks.
Before each experiment, tubulin was kept 30 min at 4° C. Assembly was monitored by the method of Gaskin et al. (Gaskin F., Cantor C. R. and Shelanski M. L., J.Molec.Biol. 89, 737-758, 1974).
The cuvette (1 cm path) containing tubulin (1 mg/ml) and 1 mM GTP was shifted to 37° C. and continuous turbidity measurements were made at 340 nm on a Perkin-Elmer 557 double wavelength, double beam spectrophotometer equipped with an automatic recorder and a thermostatically regulated sample chamber.
After 30 minutes, 4 mM CaCl2 was added and depolymerisation was measured for 10 minutes as decreased turbidity.
At regular intervals of 15 minutes scaled doses of the tested compounds were added and variations in the turbidity were monitored.
Data are expressed as percentage of repolymerization induced by the tested compounds.

In experiment [1] the test system is L1210 murine leukemia cell line. In words: Cell cultures and drug sensitivity assay (inhibition of cell growth, cell counting). Format: cell-based. The settings on record: Mus musculus; L1210 cells, 48 h treatment; read-out: ID50 (nM) L1210. As for the experimental part:
(§1) (b) Cell Cultures and Drug Sensitivity Assay
(§2) L1210 and L1210/DX (Doxorubicin resistant) murine leukemia cell lines were grown in vitro as a stationary suspension culture in RPMI 1640 medium (GIBCO, Grand island, N.Y.) supplemented with 10% fetal calf serum (Flow, Irwine, UK), 2 mM L-glutamine (Gibco Europe, Glasgow, UK), 10 μM β-mercaptoethanol, 100 Units/ml penicillin and 100 μg/ml streptomycin.
(§3) Exponentially growing cells were seeded (1×10^5 cell/ml) in 12-well/plates (Costar, Cambridge, Mass.) and various concentrations of tested compounds were added immediately after seeding.
(§4) The plates were incubated at 37° C. in a humidified, 5% CO2 atmosphere for 48 hr.
(§5) Inhibition of cell growth was evaluated by counting surviving cells in a ZBI Coulter Counter (Hialeah, Fla.). The 50% inhibitory concentration (IC50) was calculated on the derived concentration-response curve. For each tested compound concentration, duplicate cultures were used.

Experiment [2] has as its system L1210/DX (Doxorubicin resistant) murine leukemia cell line. Put plainly: Cell cultures and drug sensitivity assay (inhibition of cell growth, cell counting), Doxorubicin resistant cells. Type of experiment: cell-based. As to conditions: for R.I: L1210/DX versus L1210, 48 h treatment; for IC50: Mus musculus, L1210/DX cells (Doxorubicin resistant), 48 h treatment, read-out: ID50 (nM) L1210/DX. As for the experimental part: as §1, §2, §3, §4, §5

For the compound `COC(=O)C1=CC2C(CC(OC(=O)C=Cc3cn(C)cn3)C3(C)C=CC1(O)O3)C(C)=CC(O)C2C(C)C` (single isomer, unassigned; (-)) [Sarcodictyin C], the “tubulin assembly (%) (percentage of repolymerization induced by the tested compound)” value in the experiment with Calf brain tubulin (dosage 3.9 μM) was 112%; in the experiment on Calf brain tubulin (dosage 39 μM), 173%. Besides, the IC50 was 408 ± 21.3 nM in experiment [1] and 5790 ± 183 nM in experiment [2]. The compound further gave a R.I in experiment [2] of 14.2.
As to `COC(=O)C1=CC2C(CC(OC(=O)C=Cc3cn(C)cn3)C3(C)C=CC1(O)O3)C(C)=CCC2C(C)C` (single isomer, unassigned; (-)) [Sarcodictyin A], the “tubulin assembly (%) (percentage of repolymerization induced by the tested compound)” value with Calf brain tubulin (dosage 4 μM) was 70%; in the experiment with Calf brain tubulin (dosage 40 μM), 162%. The IC50 is 539 ± 97.7 nM in experiment [1] and 754 ± 80.3 nM in experiment [2]. The compound also gave a R.I in experiment [2] of 1.4.
